Experiments:
[1] = tested on: Desulfovibrio longus ATCC 51456; test: MBC of DBMAL, THPS and blends against anaerobic bacteria, 24 hour contact time; assay type: cell-based; settings: alone or in the blend, 40° C., 10^7 to 10^8 CFU/mL
Experimental: (§1) The synergism of the biocides combination of the present invention was determined using the method described by Kull, F. C, et al. in Applied Microbiology 9:538-541 (1961).
Inside an anaerobic chamber (Bactron anaerobic chamber), a deoxygenated sterile salt solution (3.1183 g of NaCl, 1.3082 mg of NaHCO3, 47.70 mg of KCl, 72.00 mg of CaCl2, 54.49 mg of MgSO4, 172.28 mg of Na2SO4, 43.92 mg of Na2CO3 in 1 L water, pH was adjusted to 7) was inoculated with Desulfovibrio longus ATCC 51456 to a final bacterial concentration of 10^7 to 10^8 CFU/mL. Aliquots of this cell suspension were then treated with DBMAL, THPS, and DBMAL/THPS blends, at selected active concentrations. After the treated cell suspensions were incubated at 40° C. for 24 hours, viable bacteria in each treated and untreated (control) cell suspensions were enumerated using a serial dilution method in Modified Baar's Medium (2.0 g of MgSO4, 5.7 g of Sodium citrate.2H2O, 1.0 g of CaSO4, 1.0 g of NH4Cl, 3.5 g of Sodium lactate, 1.0 g of Yeast extract, 0.5 g of K2HPO4, 0.1 g of Sodium Thioglycolate, 0.02 g of Fe(NH4)2(SO4)2, 20 g of NaCl in 1 L deionized water). The biocidal efficacy was determined by minimum tested biocide concentration for bacteria kill in the aliquots (MBC).
Table 1 summarizes the synergistic effect of each biocide and their blends, and the Synergy Index of each combination.

[2] = tested on: Pseudomonas aeruginosa ATCC 10145 and Staphylococcus aureus ATCC 6538; test: MBC of DBMAL, THPS and blends against aerobic bacteria, 1 hr and 2 hr contact time; assay type: cell-based; settings: alone or in the blend; for MBC (ppm active) THPS: THPS concentration; for MBC (ppm active) DBMAL: DBMAL concentration
Experimental: as §1
Sterile salt solution (0.2203 g of CaCl2, 0.1847 g of MgSO4, and 0.2033 g of NaHCO3 in 1 L water, adjust pH to 7.4) was inoculated with approximately 10^7 CFU/mL of Pseudomonas aeruginosa ATCC 10145 and Staphylococcus aureus ATCC 6538.
Aliquots of the cell suspension were then treated with DBMAL, THPS, and combinations of these actives at selected concentrations.
After incubating at 37° C. for 1 hr, viable bacteria in each treated and untreated (control) cell suspensions were enumerated using a serial dilution method in Tryptic Soy Broth. The biocidal efficacy was determined by minimum biocide concentration for bacteria kill in the aliquots (MBC). Synergy Index was then calculated. Table 2 summarizes the MBC of each biocide and their blends, and the Synergy Index of each combination.
The same test procedure in Example 2 was used to evaluate the biocidal efficacy of DBMAL, THPS and their blends against aerobic bacteria in a 2-hr contact assay. Table 3 summarizes the MBC of each biocide and their blends, and the Synergy Index of each combination.

Molecule: tetrakis(hydroxymethyl)phosphonium sulfate [0:1]
- MBC (ppm active) THPS ([1]; THPS concentration): 50.0 ppm active
- MBC (ppm active) THPS ([2]; 2-hr contact assay): 29.6 ppm active
- MBC (ppm active) THPS ([2]; 37° C., 1 hr contact time): 100.0 ppm active

Molecule: NC(=O)C(Br)(Br)C(N)=O [1:0, 2,2-dibromomalonamide]
- MBC (ppm active) DBMAL ([1]; DBMAL concentration): 200.0 ppm active
- MBC (ppm active) DBMAL ([2]; 2-hr contact assay): 77.8 ppm active
- MBC (ppm active) DBMAL ([2]; 37° C., 1 hr contact time): >100.0 ppm active

Source: patent publication US9615574B2, “Compositions of dibromomalonamide and their use as biocides” (Dow Global Technologies LLC, priority 2013, dated 2017)
